Values after ≈ are worked out from the molar mass of the structure shown. “Also recorded” adds a separate entry of the source. Read-outs that look alike come from different tables or passages of the source. Marks after values point to notes of the source that are not given here. *1 amine or outer side, *2 acyl side, *3 side chain or, on linkers, in order; H or OH if unused. Where a SMILES comes first, the peptide text is derived from it. Bridges are numbered along the chain shown (N, C = ends). [ ]: non-standard residue; d: D form. The star is where a group is joined. Phe(3R-OH) = O=C([C@@H](N[*:1])[C@H](O[*:3])c1ccccc1)[*:2]; NMeTrp(4-OMe) = CN[C@@H](Cc1c[nH]c2cccc(OC)c12)C(=O)O; NMeaIle = CC[C@@H](C)[C@H](NC)C(=O)O; NMe2Val = CC(C)[C@@H](C(=O)*)N(C)C; NMeT = CN[C@H](C(=O)O)[C@@H](C)O; NMeL = CN[C@@H](CC(C)C)C(=O)O; NMeV = CN[C@H](C(=O)O)C(C)C
Assays:
[1] = test system: M. tuberculosis H37Rv_LuxABCDE; test: microbe, parasite or virus in culture; assay type: cell-based, Mycobacterium tuberculosis; conditions: day 7, SD from three independent experiments; for MBC: Mycobacterium tuberculosis, read-out: MBC (±SD) via CFU
[2] = test system: M. tuberculosis H37Rv_LuxABCDE; test: postantibiotic effect by luminescence (RLU); assay type: cell-based, Mycobacterium tuberculosis; conditions: 1.5 log10 RLU increase, 1:10,000-fold dilution; for PAE 1× MIC RLU: 3 h exposure at 1× MIC; for PAE 10× MIC RLU: 3 h exposure at 10× MIC; for PAE 100× MIC RLU: 3 h exposure at 100× MIC
[3] = test system: M. tuberculosis H37Rv_LuxABCDE; test: luminescence-based MIC assay (LMICA); conditions: for MIC (±SD) LMICA: 90% reduction of luminescence, 7 days, 7H12 medium, SD from three independent experiments
[4] = test system: J774 infected with M. tuberculosis strain Erdman; conditions: read-out: Literature reported EC90; cited from earlier work
[5] = test system: J774-internalized M. tuberculosis (H37Rv); test: intracellular activity by luminescence (EC90); assay type: cell-based, Mycobacterium tuberculosis; conditions: for EC90: RLU; for onset of growth inhibition of internalized M. tuberculosis: early = EC90 obtainable by day 3, late = EC90 obtainable by day 5 or later
[6] = test system: M. tuberculosis H37Rv_LuxABCDE; test: microplate alamarBlue assay (MABA) MIC; conditions: 90% reduction of fluorescence, 7 days, 7H12 medium; SD from three independent experiments
[7] = test system: M. tuberculosis H37Rv_LuxABCDE; assay type: cell-based, Mycobacterium tuberculosis; conditions: 1:10,000-fold dilution; for PAE 1× MIC CFU/ml: 3 h exposure at 1× MIC; for PAE 10× MIC CFU/ml: 3 h exposure at 10× MIC; for PAE 100× MIC CFU/ml: 3 h exposure at 100× MIC
[8] = test system: M. tuberculosis H37Rv_LuxABCDE; test: luminescence-based MBC assay (LMBCA) / time-kill; assay type: cell-based, Mycobacterium tuberculosis; conditions: for change of MBC values over time: over 21 days, luminescence time-kill; for time and/or concentration dependence of bactericidal activity: time-kill curves up to day 21
[9] = test system: macrophage-internalized M. tuberculosis; conditions: read-out: Literature reported EC90, cited from earlier work
[10] = test system: M. tuberculosis H37Rv_LuxABCDE; test: MIC used to set PAE concentrations (Table 4); assay type: cell-based; conditions: Mycobacterium tuberculosis
Excerpt: TABLE 4 Comparison of post antibiotic effect values (h) obtained via CFU and RLU measurement for two established TB drugs (rifampin and isoniazid) and two emerging TB lead candidates (ecumicin and rufomycin)^a | column: MIC (μM)

[11] = EC90, day 3, J774 macrophages, read-out: Intracellular activity, EC90 (±SD) Day 3
[12] = EC90, day 5, J774 macrophages, read-out: Intracellular activity, EC90 (±SD) Day 5
[13] = EC90, day 7, J774 macrophages, read-out: Intracellular activity, EC90 (±SD) Day 7
[14] = day 7, 99% reduction in RLU vs T0, SD from three independent experiments
[15] = Mycobacterium tuberculosis, H37RV, 72 h, EC90, day 3, J774 macrophages, read-out: Intracellular activity, EC90 (±SD) Day 3
[16] = Mycobacterium tuberculosis, H37RV, 120 h, EC90, day 5, J774 macrophages, read-out: Intracellular activity, EC90 (±SD) Day 5
[17] = Mycobacterium tuberculosis, H37RV, 168 h, EC90, day 7, J774 macrophages, read-out: Intracellular activity, EC90 (±SD) Day 7
[18] = Mycobacterium tuberculosis, 168 h, day 7, 99% reduction in RLU vs T0, SD from three independent experiments, read-out: MBC (±SD) via luminescence
[19] = Mycobacterium tuberculosis, 336 h, day 14, 99% reduction in RLU vs T0, read-out: MBC (±SD) by luminescence on day 14
[20] = Mycobacterium tuberculosis, 504 h, day 21, 99% reduction in RLU vs T0, read-out: MBC (±SD) by luminescence on day 21

Structure (SMILES) | MBC (±SD) via CFU [1] | PAE 1× MIC RLU [2] [h] | PAE 10× MIC RLU [2] [h] | PAE 100× MIC RLU [2] [h] | MIC (±SD) LMICA [3] | EC90 [4] [nM] | onset of growth inhibition of internalized M. tuberculosis [5] | MIC (±SD) MABA [6] | PAE 10× MIC CFU/ml [7] [h] | PAE 100× MIC CFU/ml [7] [h] | MBC (±SD) via luminescence [8, 14] | change of MBC values over time [8] | time and/or concentration dependence of bactericidal activity [8] | MBC [1] [µM] | EC90 [5, 15] [nM] | EC90 [5, 16] [nM] | EC90 [5, 17] [nM] | MBC [8, 18] [µM] | MBC [8, 19] [µM] | MBC [8, 20] [µM] | other results
CC[C@@H](C)[C@@H](C(=O)N[C@@H]1C(=O)N(C)[C@@H]([C@@H](C)O)C(=O)N[C@@H](C(C)C)C(=O)N(C)[C@@H](CC(C)C)C(=O)N[C@@H](C(C)C)C(=O)N(C)[C@@H](C(C)C)C(=O)N(C)[C@@H](Cc2c[nH]c3cccc(OC)c23)C(=O)N[C@@H](C(C)C)C(=O)N[C@@H]([C@H](O)c2ccccc2)C(=O)N[C@@H](C(C)C)C(=O)O[C@@H]1C)N(C)C(=O)[C@@H](NC(=O)[C@H](C(C)C)N(C)C)C(C)C [Ecumicin] (NMe2Val-V[NMeaIle]T[NMeT]V[NMeL]V[NMeV][NMeTrp(4-OMe)]V[Phe(3R-OH)]V; ester 3-C) | 0.10 (±0.03) μM | 0 | 12 | 96 | 0.074 (0.002) μM | ~120 | early growth inhibition | 0.081 (0.02) μM | 10 | 80 | 0.22 (0.1) μM | decreased | mainly time dependent |  |  |  |  |  |  |  | EC90 [5, 11]: 740 nM; EC90 [5, 12]: 570 nM; EC90 [5, 13]: 280 nM; Toxicity against infected J774, percent inhibition at the highest tested concentration (infected J774; day 7, 6.3 μM): 6.3 (11)* percent; PAE 1× MIC CFU/ml [7]: 0 h; bactericidal or bacteriostatic activity [8]: strong bactericidal activity; also recorded: classical bactericidal dose response; MBC (±SD) by luminescence on day 14 ([8]; day 14, 99% reduction in RLU vs T0): 0.20 (0.09) µM; MBC (±SD) by luminescence on day 21 ([8]; day 21, 99% reduction in RLU vs T0): 0.12 (0.04) µM
COc1nc2ccc(Br)cc2cc1[C@@H](c1ccccc1)[C@@](O)(CCN(C)C)c1cccc2ccccc12 [Bedaquiline] |  |  |  |  | 0.028 (0.01) μM |  | early growth inhibition | 0.021 (0.01) μM |  |  |  |  | primarily concentration dependent | 0.16 (≈ 0.0889 µg/mL) | 890 | 290 | 220 | 0.13 (≈ 0.0722 µg/mL) | 0.11 (≈ 0.0611 µg/mL) | 0.12 (≈ 0.0667 µg/mL) | EC90 ([9]; EC90): 100 nM; Toxicity against infected J774, percent inhibition at the highest tested concentration (infected J774; day 7, 2 μM): 2 (7)* percent
CC[C@@H](CO)NCCN[C@@H](CC)CO [Ethambutol] |  |  |  |  | 1.3 (0.38) μM |  | late growth inhibition | 2.0 (0.41) μM |  |  | 9.2 (2.7) μM | decreased | mainly time dependent | 7.9 (≈ 1.61 µg/mL) | > 50000 | 44000 | 23800 | 9.18 (≈ 1.88 µg/mL) | 3.17 (≈ 0.648 µg/mL) | 3.28 (≈ 0.67 µg/mL) | EC90 ([9]; EC90): 16700 nM; inhibition at 50 µM ([5]; Mycobacterium tuberculosis, H37RV, 72 h, day 3, 50 μM, read-out: percent inhibition at the highest tested concentration, intracellular activity Day 3): 68%; Toxicity against infected J774, percent inhibition at the highest tested concentration (infected J774; day 7, 50 μM): 50 (0)* percent
C/C=C/C[C@@H]1NC(=O)[C@H](CC(C)C)N2C(=O)[C@H](C[C@H](C)C2O)N(C)C(=O)[C@H](C)NC(=O)[C@H](Cc2ccc(O)c([N+](=O)[O-])c2)NC(=O)[C@H](CC(C)C)N(C)C(=O)[C@H](Cc2cn(C(C)(C)C3CO3)c3ccccc23)NC1=O (some centres unmarked) [Rufomycin] | >1^b μM | 0 | 40 | 96 | 0.010 (0.001) μM | ~100 |  | 0.032 (0.012) μM | 48 | 110 | >1^c μM | decreased | mainly time dependent |  |  |  |  |  |  |  | MIC lower than ecumicin ([3]; ratio of MICs of Table 1): 7 fold; EC90 [5, 11]: > 10000 nM; EC90 [5, 12]: 3060 nM; EC90 [5, 13]: 1520 nM; percent inhibition at the highest tested concentration, intracellular activity Day 3 ([5]; day 3, 10 μM): 69%; Toxicity against infected J774, percent inhibition at the highest tested concentration (infected J774; day 7, 10 μM): 10 (8)* percent; PAE 1× MIC CFU/ml [7]: 0 h; bactericidal or bacteriostatic activity [8]: bacteriostatic; MBC ([8]; day 7, 99% reduction in RLU vs T0, SD from three independent experiments, read-out: MBC (±SD) via luminescence): > 1 µM; MBC ([8]; day 14, 99% reduction in RLU vs T0, read-out: MBC (±SD) by luminescence on day 14): > 1 µM
CO[C@H]1/C=C/O[C@@]2(C)Oc3c(C)c(O)c4c(O)c(c(/C=N/N5CCN(C)CC5)c(O)c4c3C2=O)NC(=O)/C(C)=C\C=C\[C@H](C)[C@H](O)[C@@H](C)[C@@H](O)[C@@H](C)[C@H](OC(C)=O)[C@@H]1C [Rifampin] |  |  | 26 | 92 | 0.041 (0.005) μM |  | late growth inhibition | 0.060 (0.01) μM | 30 | 58 |  | decreased | both time and concentration dependent | 0.4 (≈ 0.329 µg/mL) | > 2000 | 1550 | 640 | 0.6 (≈ 0.494 µg/mL) | 0.48 (≈ 0.395 µg/mL) | 0.4 (≈ 0.329 µg/mL) | MIC [10]: 0.04 µM (≈ 0.0329 µg/mL); EC90 ([9]; EC90, high-content imaging on day 5): 2900 nM; inhibition at 2 µM ([5]; Mycobacterium tuberculosis, H37RV, 72 h, day 3, 2 μM, read-out: percent inhibition at the highest tested concentration, intracellular activity Day 3): 60%; Toxicity against infected J774, percent inhibition at the highest tested concentration (infected J774; day 7, 2 μM): 2 (0)* percent
